From patent publication US9688764B2, “Methods of treating breast cancer by administering anti-human prolactin receptor (PRLR) antibodies” (REGENERON PHARMACEUTICALS, INC., priority 2013, dated 2017)
Where two headings read alike, the source gives them in different places.

Legend:
[1] = test system: MCF7/hPRLR (MCF7/PRLR) cells; assay: Cell viability (cell kill) assay, nuclear counts; type: cell-based, human
Outline: (§1)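 Anti-PRLR ADCs or free DM1-SMe were added at 500 nM to 5 pM final to cells seeded overnight and were incubated 3 days. MCF7 lines were fixed with 4% formaldehyde plus Hoechst 33342, and nuclei were counted by imaging, with digitonin […] background subtracted. Viability was expressed as % of untreated cells, and IC50 was obtained from a 4-parameter fit of a 10-point curve.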

[2] = test system: PC3/hErbB2 cells; assay: Cell viability (cell kill) assay; type: cell-based, human; conditions: PC3/ErbB2; Table 15
Description: (§2) PRLR-overexpressing cells, including HEK293, PC3, MCF7 and NCI-N87, were generated to assess the ability of anti-PRLR conjugated antibodies to reduce cell viability. For comparative purposes, PC3 and T47D cells with overexpressed ErbB2 were also generated, as well as an MCF7 cell line over-expressing both hPRLR and hErbB2. Briefly, Lipofectamine® 2000-mediated transfection methodology was utilized to generate HEK293 cells expressing human PRLR (HEK293/hPRLR) or human ErbB2 (HEK293/hErbB2). Lipofectamine LTX with Plus Reagent was used to generate PC3 cells expressing human PRLR (PC3/hPRLR) or human ErbB2 (PC3/hErbB2). Lentiviral-mediated transduction was utilized to generate MCF7 cells expressing human PRLR (MCF7/hPRLR), NCI-N87 cells expressing human PRLR (NCI-N87/hPRLR), T47D cells over-expressing human ErbB2 (T47D/hErbB2), and MCF7 cells expressing both human PRLR and human ErbB2 (MCF7/hPRLR/hErbB2). All lines were selected for at least two weeks in complete growth media plus appropriate selection reagents. Stably expressing populations were enriched for PRLR expression via FACS using the anti PRLR antibody Control I.
(§3) Next, the ability of anti-PRLR-DM1 antibody-drug conjugates (i.e., anti-PRLR antibodies conjugated to DM1 via a non-cleavable linker [SMCC]) to reduce cell viability was determined using in vitro cell based assays. Cells were seeded in PDL-coated 96 well plates at 1500 to 10000 cells per well in complete growth media and allowed to grow overnight. For cell viability curves, ADCs or free DM1 (as the methyl disulfide derivative DM1-SMe) were added to the cells at final concentrations ranging from 500 nM to 5 pM and incubated for 3 days. The 293, PC3 and T47D cells were incubated with CCK8 (Dojindo, Rockville, Md.) for the final 1-3 hours and the absorbance at 450 nm (OD450) was determined on a Flexstation3 (Molecular Devices, Sunnyvale, Calif.). MCF7 cells were treated with Hoechst 33342 nuclear stain while being fixed with 4% formaldehyde. Images were acquired on the ImageXpress micro XL (Molecular Devices, Sunnyvale, Calif.) and nuclear counts were determined via Columbus image analysis software (Perkin Elmer, Shelton, Conn.). Background OD450 values (PC3, 293, and T47D) or nuclear counts (MCF7) from digitonin (40 nM) treated cells was subtracted from all wells and viability was expressed as a percentage of the untreated controls. IC50 values were determined from a four-parameter logistic equation over a 10-point response curve (GraphPad Prism).
(§4) The potency of anti-PRLR conjugated antibodies compared with a similarly conjugated antibody to the co-expressed ErbB2 cell surface target was also assessed. Both PRLR and ErbB2 are expressed in a majority of breast cancers, and anti-ErbB2 antibodies conjugated to DM1 have shown clinical efficacy in targeting ErbB2 (+) breast cancer (Hurvitz et al; 2013).

[3] = test system: NCI-N87/hPRLR cells; assay: Cell viability (cell kill) assay; type: cell-based, human; conditions: NCI-N87/PRLR; Table 17
Description: as §2, §3, §4

[4] = test system: HEK293/hErbB2 cells; assay: Cell viability (cell kill) assay; type: cell-based, human; conditions: 293/ErbB2; Table 14
Description: as §2, §3, §4

[5] = test system: T47D/hErbB2 cells; assay: Cell viability (cell kill) assay; type: cell-based, human; conditions: T47D/ErbB2; Table 16
Description: as §2, §3, §4

[6] = test system: MCF7/hPRLR/hErbB2 cells; assay: Cell viability (cell kill) assay; type: cell-based, human; conditions: MCF/PRLR + ErbB2; Table 17
Description: as §2, §3, §4

[7] = test system: PC3 cells; assay: Cell viability (cell kill) assay; type: cell-based
Outline: (§5)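 PC3 and PC3/hPRLR (lipofection-generated, FACS-enriched for PRLR) cells exposed 3 days to anti-PRLR ADCs or free DM1-SMe, 500 nM to 5 pM. Viability by CCK8 OD450, digitonin background subtracted, as % of untreated; IC50 from four-parameter fit of 10-point curves.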

[8] = test system: PC3/hPRLR cells; assay: Cell viability (cell kill) assay; type: cell-based, human; conditions: PC3/PRLR
Outline: as §5

[9] = test system: SK-BR-3 cells; assay: Cell viability (cell kill) assay; type: cell-based; conditions: Table 16
[10] = test system: MCF7 (MCF7/ATCC) cells; assay: Cell viability (cell kill) assay, nuclear counts; type: cell-based; conditions: MCF7
Outline: as §1

[11] = test system: NCI-N87 cells; assay: Cell viability (cell kill) assay; type: cell-based; conditions: Table 17
Description: as §2, §3
The potency of anti-PRLR conjugated antibodies compared with a similarly conjugated antibody to the co-expressed ErbB2 cell surface target was also assessed. […]

[12] = test system: T47D cells; assay: Cell viability (cell kill) assay; type: cell-based; conditions: T47D; for IC50: read-out: IC50
Outline: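 T47D cells grown overnight, then exposed 3 days to anti-PRLR ADCs (DM1 via non-cleavable SMCC linker, or other maytansinoid toxins) or free DM1-SMe, 500 nM to 5 pM. Viability by CCK8 OD450, digitonin background subtracted, as % of untreated; IC50 from 10-point four-parameter fit. PRL (15 nM) co-incubation tested separately.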

[13] = test system: HEK293/hPRLR (293/hPRLR) cells; assay: Cell viability (cell kill) assay; type: cell-based, human; conditions: 293/PRLR; for IC50: read-out: IC50
Description: as §2, §3

[14] = test system: HEK293 (293) cells; assay: Cell viability (cell kill) assay; type: cell-based; conditions: 293
Outline: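 Anti-PRLR–DM1 ADCs (non-cleavable SMCC linker) or free DM1-SMe, 500 nM to 5 pM for 3 days on parental or hPRLR-overexpressing lines. HEK293: CCK8 OD450; MCF7: Hoechst nuclear counts by imaging.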

[15] = test system: HEK293 parental cells; assay: Cytotoxicity (cell viability, CCK8) assay; type: cell-based; conditions: Table 28, 3 days
Procedure: (§6) Next, exemplary anti-IL-4R (H4H083P2) and anti-IL-6R (VV6A9-5) antibodies were conjugated to the cytotoxic drug DM1 and their potency in cytotoxicity assays was evaluated. Briefly, HEK293/IL-4R, Ramos or KG-1 cell lines, as well as HEK293 parental cells were seeded in PDL-coated 96-well plates at 1500 to 10,000 cells per well. ADCs or free DM1 (as the methyl disulfide derivative DM1-SMe) were added to the cells at final concentrations ranging from 300 nM to 15 pM and incubated for 3 days. Cells were incubated with CCK8 (Dojindo, Rockville, Md.) for the final 1-3 hours and the absorbance at 450 nm (OD450) was determined on a Flexstation3 (Molecular Devices, Sunnyvale, Calif.). Background OD450 values from digitonin (40 nM) treated cells were subtracted from all wells and viability was expressed as a percentage of the untreated controls. IC50 values were determined from a four-parameter logistic equation over a 10-point response curve (GraphPad Prism).

[16] = test system: Ramos cells; assay: Cytotoxicity (cell viability, CCK8) assay; type: cell-based; conditions: Table 28, 3 days
Procedure: as §6

[17] = test system: KG-1 cells; assay: Cytotoxicity (cell viability, CCK8) assay; type: cell-based; conditions: Table 28, 3 days
Procedure: as §6

[18] = test system: HEK293/IL-4R cells; assay: Cytotoxicity (cell viability, CCK8) assay; type: cell-based; conditions: HEK293/hIL4R; Table 28; 3 days
Procedure: as §6

## COc1cc2cc(c1Cl)N(C)C(=O)C[C@H](OC(=O)[C@H](C)N(C)C(=O)CCS)[C@]1(C)O[C@H]1[C@H](C)[C@@H]1C[C@@](O)(NC(=O)O1)[C@H](OC)/C=C/C=C(\C)C2 [DM1 (free drug)]
[1]; Table 12, 3 days
  % Kill: 88%
  IC50: 1.47 nM
[1]; Table 17
  % Kill: 79%
  IC50: 1.85 nM
[2]
  % Kill: 85%
  IC50: 0.42 nM
[3]
  % Kill: 98%
  IC50: 1.45 nM
[4]
  % Kill: 100%
  IC50: 0.26 nM
[5]
  % Kill: 71%
  IC50: 0.18 nM
[6]
  % Kill: 77%
  IC50: 0.82 nM
[7]; Table 11, 3 days
  % Kill: 91%
  IC50: 0.47 nM
[7]; Table 15
  % Kill: 88%
  IC50: 0.44 nM
[8]; Table 11, 3 days
  % Kill: 80%
  IC50: 0.59 nM
[8]; Table 15
  % Kill: 82%
  IC50: 0.24 nM
[9]
  % Kill: 74%
  IC50: 0.39 nM
[10]; Table 12, 3 days
  % Kill: 83%
  IC50: 1.17 nM
[10]; Table 16
  % Kill: 78%
  IC50: 0.54 nM
[11]
  % Kill: 95%
  IC50: 0.84 nM
[12]; Table 12, 3 days
  % Kill: 86%
  IC50: 0.45 nM
[12]; Table 16
  % Kill: 80%
  IC50: 0.21 nM
[13]; Table 11, 3 days
  % Kill: 97%
  IC50: 0.36 nM
[13]; Table 14
  % Kill: 95%
  IC50: 0.82 nM
[14]; Table 11, 3 days
  % Kill: 98%
  IC50: 0.27 nM
[14]; Table 14
  % Kill: 95%
  IC50: 0.5 nM

## COc1cc2cc(c1Cl)N(C)C(=O)C[C@H](OC(=O)[C@H](C)N(C)C(=O)CCS)[C@]1(C)O[C@H]1[C@H](C)[C@@H]1C[C@@](O)(NC(=O)O1)[C@H](OC)/C=C/C=C(\C)C2 [DM1 (Free Drug)]
[15]
  % Kill: 100%
  IC50: 0.27 nM
[16]
  % Kill: 100%
  IC50: 0.34 nM
[17]
  % Kill: 89%
  IC50: 1.26 nM
[18]
  % Kill: 98%
  IC50: 0.33 nM
